Source: patent US20230011269A1, “PHARMACEUTICAL COMPOSITION COMPRISING A POTENT INHIBITOR OF URAT1” (Ardea Biosciences, Inc., priority 2015, published 2023)
≈ marks a conversion by molar mass, not a printed value. Like-named read-outs stand apart in the source and are kept apart here.

Columns and labels:
[1] = Phase 1 single dose study, immediate release formulations: plasma pharmacokinetics; format: in vivo, human; conditions: for AUC(0-t): read-out: AUC0-24
Description: (§1) A phase 1, randomized, double-blind, placebo-controlled study in healthy adult male volunteers evaluated single rising doses and the preliminary food effect for 2-((3-(4-cyanonaphthalen-1-yl)pyridine-4-yl)thio)-2-methylpropanoic acid at 6 dose groups with 8 subjects per group. […] Subjects in each dose group were randomized to receive a single dose of either 2-((3-(4-cyanonaphthalen-1-yl)pyridine-4-yl)thio)-2-methylpropanoic acid (6 subjects) or placebo (2 subjects). 2-((3-(4-cyanonaphthalen-1-yl)pyridine-4-yl)thio)-2-methylpropanoic acid was supplied as 1 mg oral solution, 2 mg oral solution, 5 mg tablets, or 20 mg tablets (depending on dose level).
Segment A evaluated single rising doses of 2 mg, 5 mg, 20 mg and 40 mg and the preliminary food effect of 2-((3-(4-cyanonaphthalen-1-yl)pyridine-4-yl)thio)-2-methylpropanoic acid at the 5 mg and 20 mg doses followed by multiple ascending doses of 1 mg, 5 mg and 10 mg qd in Segment B.
The oral solution was prepared by the clinical pharmacist in bulk within 24 hours of administration. The oral solution of 2-((3-(4-cyanonaphthalen-1-yl)pyridine-4-yl)thio)-2-methylpropanoic acid (0.033 mg/mL concentration) was prepared as a mixture of the appropriate amount of 2-((3-(4-cyanonaphthalen-1-yl)pyridine-4-yl)thio)-2-methylpropanoic acid powder, anhydrous dibasic sodium phosphate, and sterile water for irrigation; placebo oral solution was prepared as a vehicle using anhydrous dibasic sodium phosphate and sterile water for irrigation. […] Plasma samples were collected at the following time-points in relation to dosing on Day 1: pre-dose (within 30 minutes before dosing) and at 0.25, 0.5, 0.75, 1, 1.5, 2, 2.5, 3, 4, 5, 6, 8, 10, 12, 24, 30, 36, 48, 54, 60, and 72 hours post-dose, and were analysed for 2-((3-(4-cyanonaphthalen-1-yl)pyridine-4-yl)thio)-2-methylpropanoic acid content.

[2] = test system: urine urate excretion; experiment: Phase 1 single dose study, immediate release formulations: urine urate excretion; format: in vivo, human; conditions: 5 mg/Fasted
Description: as §1
The mean plasma concentration-time profiles for the IR formulations under fed and fasted conditions are depicted in FIGS. 3a and 3b. Absorption of 2-((3-(4-cyanonaphthalen-1-yl)pyridine-4-yl)thio)-2-methylpropanoic acid following a single oral dose under fasted conditions was rapid. […] When 2-((3-(4-cyanonaphthalen-1-yl)pyridine-4-yl)thio)-2-methylpropanoic acid was administered with food, slightly slower absorption and lower exposure were observed. […] Important pharmacodynamic parameters related to the serum Uric Acid lowering effects are shown in the following two tables: […]

[3] = aqueous equilibrium solubility at 37° C.; format: physicochemical; conditions: aqueous media, thermodynamic from solid
Description: The solubility of 2-((3-(4-cyanonaphthalen-1-yl)pyridine-4-yl)thio)-2-methylpropanoic acid in aqueous media is highly dependent upon pH.

[4] = 2 mg single dose, Fasted, oral solution, Group 5, N = 6, Geomean
[5] = 5 mg single dose, Fasted, 1 × 5 mg tablet, Group 4, N = 6, Geomean
[6] = 5 mg single dose, Fed, 1 × 5 mg tablet, Group 6, N = 6, Geomean
[7] = 20 mg single dose, Fasted, 1 × 20 mg tablet, Group 1, N = 6, Geomean
[8] = 20 mg single dose, Fed, 1 × 20 mg tablet, Group 3, N = 6, Geomean
[9] = 40 mg single dose, Fasted, 2 × 20 mg tablet, Group 2, N = 6, Geomean
[10] = mg of urate per urine collection period

- AUC∞ [1, 4]: 0.0450 µg·h/mL
- Cmax [1, 4]: 0.0364 µg/mL
- t1/2 [1, 4]: 12.1 h
- Tmax ([1]; 2 mg single dose, Fasted, oral solution, Group 5, N = 6, median): 0.500 h
- AUC∞ [1, 5]: 0.121 µg·h/mL
- Cmax [1, 5]: 0.0729 µg/mL
- t1/2 [1, 5]: 14.2 h
- AUC∞ [1, 6]: 0.0928 µg·h/mL
- Cmax [1, 6]: 0.0457 µg/mL
- t1/2 [1, 6]: 12.7 h
- Tmax ([1]; 5 mg single dose, Fed, 1 × 5 mg tablet, Group 6, N = 6, median): 1.25 h
- Cmax ([1]; 5 mg/Fasted, immediate release, read-out: Cmax): 0.0729 µg/mL
- Cmax [1, 7]: 0.384 µg/mL
- t1/2 [1, 7]: 10.9 h
- Tmax ([1]; 20 mg single dose, Fasted, 1 × 20 mg tablet, Group 1, N = 6, median): 0.500 h
- AUC∞ [1, 8]: 0.415 µg·h/mL
- Cmax [1, 8]: 0.181 µg/mL
- t1/2 [1, 8]: 13.8 h
- Tmax ([1]; 20 mg single dose, Fed, 1 × 20 mg tablet, Group 3, N = 6, median): 1.25 h
- AUC∞ [1, 9]: 1.27 µg·h/mL
- t1/2 [1, 9]: 9.51 h
- Tmax ([1]; 40 mg single dose, Fasted, 2 × 20 mg tablet, Group 2, N = 6, median): 0.750 h
- AUC(0-t) ([1]; male, human, plasma, oral, 2 mg, 2 mg/Fasted, immediate release): 0.0388 µg·h/mL
- AUC(0-t) ([1]; male, human, plasma, oral, 5 mg, 5 mg single dose, Fasted, 1 × 5 mg tablet, Group 4, N = 6, Geomean): 0.102 µg·h/mL
- Tmax ([1]; male, human, plasma, oral, 5 mg, 5 mg single dose, Fasted, 1 × 5 mg tablet, Group 4, N = 6, median, read-out: Tmax): 0.625 h
- AUC(0-t) ([1]; male, human, plasma, oral, 5 mg, 5 mg single dose, Fed, 1 × 5 mg tablet, Group 6, N = 6, Geomean): 0.0752 µg·h/mL
- AUC(0-t) ([1]; male, human, plasma, oral, 5 mg, 5 mg/Fasted, immediate release): 0.102 µg·h/mL
- AUC(0-t) ([1]; male, human, plasma, oral, 20 mg, 20 mg single dose, Fasted, 1 × 20 mg tablet, Group 1, N = 6, Geomean): 0.463 µg·h/mL
- AUC(0-t) ([1]; male, human, plasma, oral, 20 mg, 20 mg single dose, Fed, 1 × 20 mg tablet, Group 3, N = 6, Geomean): 0.35 µg·h/mL
- AUC(0-t) ([1]; male, human, plasma, oral, 20 mg, 20 mg/Fasted, immediate release): 0.463 µg·h/mL
- AUC(0-t) ([1]; male, human, plasma, oral, 40 mg, 40 mg single dose, Fasted, 2 × 20 mg tablet, Group 2, N = 6, Geomean): 1.07 µg·h/mL
- AUC(0-t) ([1]; male, human, plasma, oral, 40 mg, 40 mg/Fasted, immediate release): 1.07 µg·h/mL
- AUC(0-inf) ([1]; male, human, plasma, oral, 20 mg single dose, Fasted, 1 × 20 mg tablet, Group 1, N = 6, Geomean): 0.54 µg·h/mL
- Cmax ([1]; male, human, plasma, oral, 40 mg single dose, Fasted, 2 × 20 mg tablet, Group 2, N = 6, Geomean, read-out: Cmax): 0.76 µg/mL
- AUC(0-t) ([1]; male, human, plasma, po, 2 mg, 2 mg single dose, Fasted, oral solution, Group 5, N = 6, Geomean): 0.0388 µg·h/mL
- Tmax ([1]; male, human, plasma, po, 5 mg, immediate release tablet, oral, fasted, human, read-out: Tmax (called mean in b5, median)): 0.6 h
- Tmax ([1]; male, human, plasma, po, 5 mg, immediate release tablet, oral, fasted, human, read-out: time at which the peak plasma concentration is observed (Tmax), range): 0.25 to 1.5 h
- Cmax ([1]; male, human, plasma, po, 5 mg, read-out: geometric mean maximum plasma concentration (Cmax)): ~0.073 µg/mL
- solubility at 24 h ([3]; pH 1, simulated gastric fluid, 0.1N HCl, pH initial 1.1, pH (24 h) 1.0, read-out: Solubility after 24 hours): 1.48 mg/mL (≈ 4250 µM)
- solubility at 48 h ([3]; pH 1.1, simulated gastric fluid, 0.1N HCl, pH initial 1.1, pH (48 h) 1.1, read-out: Solubility after 48 hours): 1.24 mg/mL (≈ 3550 µM)
- solubility at 24 h ([3]; pH 1.6, simulated gastric fluid, SGF pH 1.6, pH initial 1.6, pH (24 h) 1.4, read-out: Solubility after 24 hours): 0.415 mg/mL (≈ 1190 µM)
- solubility at 48 h ([3]; pH 1.6, simulated gastric fluid, SGF pH 1.6, pH initial 1.6, pH (48 h) 1.4, read-out: Solubility after 48 hours): 0.398 mg/mL (≈ 1140 µM)
- solubility at 24 h ([3]; pH 3, aqueous buffer, Citrate pH 3.0, pH initial 3.0, pH (24 h) 2.8, read-out: Solubility after 24 hours): 0.066 mg/mL (≈ 189 µM)
- solubility at 48 h ([3]; pH 3, aqueous buffer, Citrate pH 3.0, pH initial 3.0, pH (48 h) 2.8, read-out: Solubility after 48 hours): 0.065 mg/mL (≈ 187 µM)
- solubility at 24 h ([3]; pH 4, aqueous buffer, Succinate pH 4.0, pH initial 4.0, pH (24 h) 3.9, read-out: Solubility after 24 hours): 0.056 mg/mL (≈ 161 µM)
- solubility at 48 h ([3]; pH 4, aqueous buffer, Succinate pH 4.0, pH initial 4.0, pH (48 h) 3.9, read-out: Solubility after 48 hours): 0.055 mg/mL (≈ 158 µM)
- solubility at 24 h ([3]; pH 4.5, aqueous buffer, Acetate pH 4.5, pH initial 4.6, pH (24 h) 4.5, read-out: Solubility after 24 hours): 0.07 mg/mL (≈ 201 µM)
- solubility at 48 h ([3]; pH 4.5, aqueous buffer, Acetate pH 4.5, pH initial 4.6, pH (48 h) 4.5, read-out: Solubility after 48 hours): 0.065 mg/mL (≈ 187 µM)
- solubility at 24 h ([3]; pH 5, aqueous buffer, Citrate pH 5.0, pH initial 5.0, pH (24 h) 5.0, read-out: Solubility after 24 hours): 0.097 mg/mL (≈ 278 µM)
- solubility at 48 h ([3]; pH 5, aqueous buffer, Citrate pH 5.0, pH initial 5.0, pH (48 h) 4.9, read-out: Solubility after 48 hours): 0.095 mg/mL (≈ 273 µM)
- solubility at 48 h ([3]; pH 5.3, water, Water, pH initial 6.3, pH (48 h) 5.3, read-out: Solubility after 48 hours): 0.132 mg/mL (≈ 379 µM)
- solubility at 24 h ([3]; pH 5.4, water, Water, pH initial 6.3, pH (24 h) 5.4, read-out: Solubility after 24 hours): 0.148 mg/mL (≈ 425 µM)
- solubility at 24 h ([3]; pH 6, aqueous buffer, Histidine pH 6.0, pH initial 6.1, pH (24 h) 5.8, read-out: Solubility after 24 hours): 0.532 mg/mL (≈ 1530 µM)
- solubility at 48 h ([3]; pH 6, aqueous buffer, Histidine pH 6.0, pH initial 6.1, pH (48 h) 5.8, read-out: Solubility after 48 hours): 0.485 mg/mL (≈ 1390 µM)
- solubility at 24 h ([3]; pH 6.8, aqueous buffer, Potassium phosphate pH 6.8, pH initial 6.9, pH (24 h) 6.6, read-out: Solubility after 24 hours): 2.37 mg/mL (≈ 6800 µM)
- solubility at 48 h ([3]; pH 6.8, aqueous buffer, Potassium phosphate pH 6.8, pH initial 6.9, pH (48 h) 6.5, read-out: Solubility after 48 hours): 2.71 mg/mL (≈ 7770 µM)
- solubility at 24 h ([3]; pH 6.9, aqueous buffer, 0.03N NaOH, pH initial 12.3, pH (24 h) 6.9, read-out: Solubility after 24 hours): 10.6 mg/mL (≈ 30300 µM)
- solubility at 48 h ([3]; pH 6.9, aqueous buffer, 0.03N NaOH, pH initial 12.3, pH (48 h) 6.9, read-out: Solubility after 48 hours): 10.3 mg/mL (≈ 29400 µM)
- solubility at 48 h ([3]; pH 7, aqueous buffer, 0.1N NaOH, pH initial 12.8, pH (48 h) 7.0, read-out: Solubility after 48 hours): 33.5 mg/mL (≈ 96100 µM)
- solubility at 24 h ([3]; pH 7, aqueous buffer, Sodium phosphate pH 7.0, pH initial 7.0, pH (24 h) 6.7, read-out: Solubility after 24 hours): 3.52 mg/mL (≈ 10100 µM)
- solubility at 48 h ([3]; pH 7, aqueous buffer, Sodium phosphate pH 7.0, pH initial 7.0, pH (48 h) 6.6, read-out: Solubility after 48 hours): 3.62 mg/mL (≈ 10400 µM)
- solubility at 24 h ([3]; pH 7.1, aqueous buffer, 0.1N NaOH, pH initial 12.8, pH (24 h) 7.1, read-out: Solubility after 24 hours): 31.9 mg/mL (≈ 91500 µM)
- solubility at 48 h ([3]; pH 7.4, aqueous buffer, 0.3N NaOH, pH initial 13.2, pH (48 h) 7.4, read-out: Solubility after 48 hours): 93.6 mg/mL (≈ 269000 µM)
- solubility at 24 h ([3]; pH 11.7, aqueous buffer, 0.3N NaOH, pH initial 13.2, pH (24 h) 11.7, read-out: Solubility after 24 hours): 87.8 mg/mL (≈ 252000 µM)
SMILES: CC(C)(Sc1ccncc1-c1ccc(C#N)c2ccccc12)C(=O)O [2-((3-(4-cyanonaphthalen-1-yl)pyridine-4-yl)thio)-2-methylpropanoic acid]
- Urine Urate Excretion 0-6 hrs/0-24 hrs [2]: 0.468
- Urine Urate Excretion UUE 0-6 hrs [2, 10]: 509 mg
- Urine Urate Excretion UUE 6-12 hrs [2, 10]: 231 mg
- Urine Urate Excretion UUE 12-24 hrs [2, 10]: 347 mg
